# Measurements published in patent publication US20250346585A1 (Alexion Pharmaceuticals, Inc., priority 2022, published 2025).
# pIC50: −log10 of the molar value.
# Target: Human complement C1s enzyme (Homo sapiens (Human), UniProt P09871)
# Assay: Human C1s enzyme assay
# Type: biochemical
# Details: Human complement C1s enzyme 1.16 nM, substrate Z-L-Lys-SBzl; assay of Example 3; read-out: IC50 (Stars)
# Method in brief: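 Purified serum-derived human C1s (1.16 nM final) preincubated 5 min at room temperature with compound in 50 mM Tris, 1 M NaCl, pH 7.5. Z-L-Lys-SBzl thioester substrate and DTNB added (100 μM each, final); A405 read every 30 s for 30 min. IC50 from nonlinear regression of reaction rates against compound concentration.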
# Chain of Human complement C1s enzyme (P09871 438-688 limits assumed): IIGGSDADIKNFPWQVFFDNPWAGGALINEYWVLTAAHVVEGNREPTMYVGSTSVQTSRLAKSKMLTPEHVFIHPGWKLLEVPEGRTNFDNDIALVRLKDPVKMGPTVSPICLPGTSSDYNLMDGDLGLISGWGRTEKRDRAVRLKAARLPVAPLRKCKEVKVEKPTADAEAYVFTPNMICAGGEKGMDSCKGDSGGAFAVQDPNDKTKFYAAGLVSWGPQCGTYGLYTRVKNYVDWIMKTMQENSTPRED
# Chain of Human complement C1s enzyme (P09871 16-437 partner limits assumed): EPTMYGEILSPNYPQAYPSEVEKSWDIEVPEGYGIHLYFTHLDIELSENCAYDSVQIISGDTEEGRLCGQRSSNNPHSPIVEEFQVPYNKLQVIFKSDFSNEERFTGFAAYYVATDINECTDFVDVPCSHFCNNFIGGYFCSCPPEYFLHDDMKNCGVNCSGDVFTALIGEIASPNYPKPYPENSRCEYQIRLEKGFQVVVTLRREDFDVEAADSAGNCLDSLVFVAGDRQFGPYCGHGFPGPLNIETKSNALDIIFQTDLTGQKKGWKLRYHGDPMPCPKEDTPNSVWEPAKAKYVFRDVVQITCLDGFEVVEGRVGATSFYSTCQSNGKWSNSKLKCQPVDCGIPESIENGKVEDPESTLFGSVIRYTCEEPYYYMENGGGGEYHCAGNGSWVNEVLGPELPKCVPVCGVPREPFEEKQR
row,pIC50,Structure (SMILES)
1,> 7.00,"CS(=O)(=O)[C@@H]1C[C@@H](C(=O)N[C@H](CO)c2cc(C(=N)N)cs2)N(C(=O)CNC(=O)c2cccc(-c3ccc(F)cc3)c2)C1 [Compound 402, (2S,4R)—N—((R)-1-(4-carbamimidoylthiophen-2-yl)-2-hydroxyethyl)-1-((4′-fluoro-[1,1′-biphenyl]-3-carbonyl)glycyl)-4-(methylsulfonyl)pyrrolidine-2-carboxamide]"
2,> 7.00,"N=C(N)c1csc([C@@H](CO)NC(=O)[C@@H]2C[C@@H](OC(F)F)CN2C(=O)CNC(=O)c2ccc3c(c2)-c2ccccc2C3(F)F)c1 [Compound 403, (2S,4R)—N—((R)-1-(4-carbamimidoylthiophen-2-yl)-2-hydroxyethyl)-1-((9,9-difluoro-9H-fluorene-3-carbonyl)glycyl)-4-(difluoromethoxy) pyrrolidine-2-carboxamide]"
3,> 7.00,"Cc1ccc(-c2cccc(C(=O)NCC(=O)N3C[C@H](S(C)(=O)=O)C[C@H]3C(=O)N[C@H](CO)c3cc(C(=N)N)cs3)c2)cc1 [Compound 404, (2S,4R)—N—((R)-1-(4-carbamimidoylthiophen-2-yl)-2-hydroxyethyl)-1-((4′-methyl-[1,1′-biphenyl]-3-carbonyl)glycyl)-4-(methylsulfonyl) pyrrolidine-2-carboxamide]"
4,> 7.00,"N=C(N)c1csc([C@@H](CO)NC(=O)[C@@H]2C[C@](F)(CF)CN2C(=O)CNC(=O)c2ccc3c(c2)C(F)(F)c2ccccc2-3)c1 [Compound 405, (2S,4R)—N—((R)-1-(4-carbamimidoylthiophen-2-yl)-2-hydroxyethyl)-1-((9,9-difluoro-9H-fluorene-2-carbonyl)glycyl)-4-fluoro-4-(fluoromethyl)pyrrolidine-2-carboxamide]"
5,> 7.00,"CS(=O)(=O)[C@@H]1C[C@@H](C(=O)N[C@H](CO)c2cc(C(=N)N)cs2)N(C(=O)CNC(=O)c2ccc3c(c2)C(F)(F)c2ccccc2-3)C1 [Compound 406, (2S,4R)—N—((R)-1-(4-carbamimidoylthiophen-2-yl)-2-hydroxyethyl)-1-((9,9-difluoro-9H-fluorene-2-carbonyl)glycyl)-4-(methylsulfonyl)pyrrolidine-2-carboxamide]"
6,> 7.00,"CO[C@@H]1C[C@@H](C(=O)N[C@H](CO)c2cc(C(=N)N)cs2)N(C(=O)CNC(=O)c2ccc3c(c2)-c2ccccc2C3(F)F)C1 [Compound 407, (2S,4R)—N—((R)-1-(4-carbamimidoylthiophen-2-yl)-2-hydroxyethyl)-1-((9,9-difluoro-9H-fluorene-3-carbonyl)glycyl)-4-methoxypyrrolidine-2-carboxamide]"
7,> 7.00,"COC[C@@]1(F)C[C@@H](C(=O)N[C@H](CO)c2cc(C(=N)N)cs2)N(C(=O)CNC(=O)c2ccc3c(c2)-c2ccccc2C3(F)F)C1 [Compound 408, (2S,4R)—N—((R)-1-(4-carbamimidoylthiophen-2-yl)-2-hydroxyethyl)-1-((9,9-difluoro-9H-fluorene-3-carbonyl)glycyl)-4-fluoro-4-(methoxymethyl)pyrrolidine-2-carboxamide]"
8,> 7.00,"COC[C@@]1(F)C[C@@H](C(=O)N[C@H](CO)c2cc(C(=N)N)cs2)N(C(=O)CNC(=O)c2ccc3c(c2)-c2ccccc2C3(C)C)C1 [Compound 409, (2S,4R)—N—((R)-1-(4-carbamimidoylthiophen-2-yl)-2-hydroxyethyl)-1-((9,9-dimethyl-9H-fluorene-3-carbonyl)glycyl)-4-fluoro-4-(methoxymethyl)pyrrolidine-2-carboxamide]"
9,> 7.00,"C[C@@H](NC(=O)[C@@H]1C[C@@H](c2nccs2)CN1C(=O)CNC(=O)c1ccc(Oc2ccc(F)cc2)cc1)c1cc(C(=N)N)cs1 [Compound 412, (2S,4R)—N—((R)-1-(4-carbamimidoylthiophen-2-yl)ethyl)-1-((4-(4-fluorophenoxy)benzoyl)glycyl)-4-(thiazol-2-yl)pyrrolidine-2-carboxamide]"
10,> 7.00,"CC1(C)c2ccccc2-c2cc(C(=O)NCC(=O)N3C[C@H](OC(F)F)C[C@H]3C(=O)N[C@H](CO)c3cc(C(=N)N)cs3)ccc21 [Compound 413, (2S,4R)—N—((R)-1-(4-carbamimidoylthiophen-2-yl)-2-hydroxyethyl)-4-(difluoromethoxy)-1-((9,9-dimethyl-9H-fluorene-3-carbonyl)glycyl) pyrrolidine-2-carboxamide]"
11,> 7.00,"C[C@@H](NC(=O)[C@@H]1CC(c2ncco2)CN1C(=O)CNC(=O)c1ccc2c(c1)-c1ccccc1C2(F)F)c1cc(C(=N)N)cs1 (stereo partly drawn) [Compound 416, (S)—N—((R)-1-(4-carbamimidoylthiophen-2-yl)ethyl)-1-((9,9-difluoro-9H-fluorene-3-carbonyl)glycyl)-4-(oxazol-2-yl)pyrrolidine-2-carboxamide]"
12,> 7.00,"CC1c2ccccc2-c2cc(C(=O)NCC(=O)N3C[C@@](F)(CF)C[C@H]3C(=O)N[C@H](C)c3cc(C(=N)N)cs3)ccc21 (stereo partly drawn) [Compound 417, (2S,4R)—N—((R)-1-(4-carbamimidoylthiophen-2-yl)ethyl)-4-fluoro-4-(fluoromethyl)-1-((9-methyl-9H-fluorene-3-carbonyl)glycyl)pyrrolidine-2-carboxamide]"
13,> 7.00,"COC[C@@]1(F)C[C@@H](C(=O)N[C@H](C)c2cc(C(=N)N)cs2)N(C(=O)CNC(=O)c2ccc3c(c2)-c2ccccc2C3C)C1 (stereo partly drawn) [Compound 418, (2S,4R)—N—((R)-1-(4-carbamimidoylthiophen-2-yl)ethyl)-4-fluoro-4-(methoxymethyl)-1-((9-methyl-9H-fluorene-3-carbonyl)glycyl)pyrrolidine-2-carboxamide]"
14,> 7.00,"CC1c2ccccc2-c2cc(C(=O)NCC(=O)N3C[C@H](S(C)(=O)=O)C[C@H]3C(=O)N[C@H](C)c3cc(C(=N)N)cs3)ccc21 (stereo partly drawn) [Compound 419, (2S,4R)—N—((R)-1-(4-carbamimidoylthiophen-2-yl)ethyl)-1-((9-methyl-9H-fluorene-3-carbonyl)glycyl)-4-(methylsulfonyl)pyrrolidine-2-carboxamide]"
15,> 7.00,"C[C@@H](NC(=O)[C@@H]1C[C@]2(Cc3ncno3)C[C@@H]2N1C(=O)CNC(=O)c1ccc2c(c1)-c1ccccc1C2(F)F)c1cc(C(=N)N)cs1 [Compound 420, (1S,3S,5S)-5-((1,2,4-oxadiazol-5-yl)methyl)-N—((R)-1-(4-carbamimidoylthiophen-2-yl)ethyl)-2-((9,9-difluoro-9H-fluorene-3-carbonyl)glycyl)-2-azabicyclo[3.1.0]hexane-3-carboxamide]"
16,> 7.00,"CC1c2ccccc2-c2cc(C(=O)NCC(=O)N3C[C@H](OC(F)F)C[C@H]3C(=O)N[C@H](C)c3cc(C(=N)N)cs3)ccc21 (stereo partly drawn) [Compound 421, (2S,4R)-N-((R)-1-(4-carbamimidoylthiophen-2-yl)ethyl)-4-(difluoromethoxy)-1-((9-methyl-9H-fluorene-3-carbonyl)glycyl) pyrrolidine-2-carboxamide]"
17,> 7.00,"C[C@@H](NC(=O)[C@@H]1C[C@]2(COCCCN(C)C)C[C@@H]2N1C(=O)CNC(=O)c1ccc2c(c1)-c1ccccc1C2(F)F)c1cc(C(=N)N)cs1 [Compound 422, (1S,3S,5R)-N-((R)-1-(4-carbamimidoylthiophen-2-yl)ethyl)-2-((9,9-difluoro-9H-fluorene-3-carbonyl)glycyl)-5-((3-(dimethylamino)propoxy)methyl)-2-azabicyclo[3.1.0]hexane-3-carboxamide]"
18,> 7.00,"N=C(N)c1c[nH]c(CNC(=O)[C@@H]2CC3(CN2C(=O)CNC(=O)c2ccc4c(c2)-c2ccccc2C4(F)F)OCCO3)c1 [Compound 423, (S)-N-((4-carbamimidoyl-1H-pyrrol-2-yl)methyl)-7-((9,9-difluoro-9H-fluorene-3-carbonyl)glycyl)-1,4-dioxa-7-azaspiro[4.4]nonane-8-carboxamide]"

row,Structure (SMILES),pIC50
1,"C[C@@H](NC(=O)[C@@H]1C[C@]2(COCCCCN)C[C@@H]2N1C(=O)CNC(=O)c1ccc2c(c1)-c1ccccc1C2(F)F)c1cc(C(=N)N)cs1 [Compound 414, (1S,3S,5R)-5-((4-aminobutoxy)methyl)-N—((R)-1-(4-carbamimidoylthiophen-2-yl)ethyl)-2-((9,9-difluoro-9H-fluorene-3-carbonyl)glycyl)-2-azabicyclo[3.1.0]hexane-3-carboxamide]",> 7.00
2,"C[C@@H](NC(=O)[C@@H]1C[C@]2(COCCCCN(C)C)C[C@@H]2N1C(=O)CNC(=O)c1ccc2c(c1)-c1ccccc1C2(F)F)c1cc(C(=N)N)cs1 [Compound 415, (1S,3S,5R)—N—((R)-1-(4-carbamimidoylthiophen-2-yl)ethyl)-2-((9,9-difluoro-9H-fluorene-3-carbonyl)glycyl)-5-((4-(dimethylamino)butoxy)methyl)-2-azabicyclo[3.1.0]hexane-3-carboxamide]",> 7.00
